The record followed here is ChEMBL document CHEMBL3352585, “2013 Philip S. Portoghese Medicinal Chemistry Lectureship: drug discovery targeting allosteric sites” (J Med Chem, 2014).

Assay [1] addresses T1, Muscarinic acetylcholine receptor M5 (Homo sapiens, UniProt P08912).
T1 sequence (P08912 whole entry): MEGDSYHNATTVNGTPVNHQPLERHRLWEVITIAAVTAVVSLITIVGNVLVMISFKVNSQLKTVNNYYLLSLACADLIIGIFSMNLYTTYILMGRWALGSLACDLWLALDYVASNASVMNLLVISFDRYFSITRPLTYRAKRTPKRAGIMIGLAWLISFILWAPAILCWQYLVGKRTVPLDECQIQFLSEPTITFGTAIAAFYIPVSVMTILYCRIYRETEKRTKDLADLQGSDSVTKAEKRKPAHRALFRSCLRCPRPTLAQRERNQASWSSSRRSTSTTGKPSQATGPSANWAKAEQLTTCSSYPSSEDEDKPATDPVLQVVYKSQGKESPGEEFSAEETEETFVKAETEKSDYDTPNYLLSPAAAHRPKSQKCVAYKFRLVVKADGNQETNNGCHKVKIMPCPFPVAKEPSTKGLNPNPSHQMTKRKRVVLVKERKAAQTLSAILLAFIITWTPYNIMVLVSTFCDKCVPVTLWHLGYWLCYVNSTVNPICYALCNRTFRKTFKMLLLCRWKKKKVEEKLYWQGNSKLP
Kind of assay: Allosteric agonist activity at human muscarinic acetylcholine receptor M5.

For assay [2], the target named is T1, Muscarinic acetylcholine receptor M5. Briefly: Silent allosteric modulator activity at human muscarinic acetylcholine receptor M5 expressed in CHO cells by fluorometric imaging plate reader. Format: cell-based.
Assay [3] has the same target. Briefly: Positive allosteric modulator activity at human muscarinic acetylcholine receptor M5 expressed in CHO cells by fluorometric imaging plate reader. In kind it is cell-based.
Assay [4] in a line: Inhibition of PKA (unknown origin). Further details: species or system Homo sapiens.
In assay [5] the target is T2, Serine/threonine-protein kinase Sgk1 (Homo sapiens, UniProt O00141).
T2 sequence (O00141 whole entry): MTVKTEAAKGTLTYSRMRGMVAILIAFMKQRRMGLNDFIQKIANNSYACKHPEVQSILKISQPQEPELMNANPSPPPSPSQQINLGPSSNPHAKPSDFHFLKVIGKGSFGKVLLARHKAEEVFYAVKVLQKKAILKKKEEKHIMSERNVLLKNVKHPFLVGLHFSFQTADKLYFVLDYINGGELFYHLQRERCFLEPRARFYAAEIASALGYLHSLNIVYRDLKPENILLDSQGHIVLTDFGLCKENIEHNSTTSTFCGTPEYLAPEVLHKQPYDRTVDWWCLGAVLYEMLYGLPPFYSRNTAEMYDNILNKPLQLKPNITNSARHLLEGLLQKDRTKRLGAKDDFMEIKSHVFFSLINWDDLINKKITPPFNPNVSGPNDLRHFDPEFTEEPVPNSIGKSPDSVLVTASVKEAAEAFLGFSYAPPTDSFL
Kind of assay: Inhibition of SGK (unknown origin).

Assay [6] deals with Protein kinase C (PKC). Kind of assay: Inhibition of PKC (unknown origin). Further details: species or system Homo sapiens.
In assay [7] the target is T1, Muscarinic acetylcholine receptor M5. Kind of assay: Negative allosteric modulator activity at human muscarinic acetylcholine receptor M5 expressed in CHO cells by fluorometric imaging plate reader. Format: cell-based.

By EC50 is commonly meant the concentration giving half of the maximal effect. A low value points to higher potency in that assay. Turning to `O=C(N[C@H]1C[C@H](O)C1)c1ccc(C#Cc2cccc(F)c2)cn1`, in assay [1], the response was half-maximal at 0.4 µM (EC50). `Clc1cccc(/C=N/N=C/c2cccc(Cl)c2)c1` showed an EC50 in assay [2] of 7.6 µM.

For the compound `O=C(N[C@H]1C[C@@H](O)C1)c1ccc(C#Cc2cccc(F)c2)cn1`, the 50% effective concentration (EC50) in assay [3] came out at 0.033 µM. Usually IC50 stands for the concentration that gives 50% inhibition. On to `CC(C)(N)c1ccc(-c2nc3ccccc3nc2-c2ccccc2)cc1`, for which the IC50 in assay [4], in assay [5] and in assay [6] was over 250 µM throughout. In the case of `Fc1cccc(/C=N/N=C/c2cccc(F)c2)c1`, in assay [3], it took 2.6 µM to reach a half-maximal effect (EC50).

On to `COc1cccc(/C=N/N=C/c2cccc(OC)c2)c1`, for which, in assay [7], the response was half-maximal at 3 µM (EC50).
